Where two headings read alike, the source gives them in different places. Residues, ends and D or L forms follow the SMILES beside them. No end group written: not given here.
How the values were obtained:
HLA-DQ8 = HLA-DQ8 (Homo sapiens, UniProt P01909+P01920, A209T/A45G/C70Q/D89A/DUP78-78/E183D/E77G/F237L/G63E/H199R/I129T/K197E/L178F/L74F/L98V/Q57E/Q76R/S185I/S97I/T217I/T49S/V73L/Y58L); experiment: MHC II/peptide competition binding assay, HLA-DQ8
Method: (§1) One skilled in the art would appreciate that the 15-mers used included shorter de-epitoped high molecular weight glutenin peptide sequences (mutated repeating antigenic units), as described throughout. For example, Table 2 provides a listing of 15-mers and the shorter mutated repeating antigenic units present therein. […] MHC II molecules were purified by affinity chromatography, and peptides were radiolabeled using the chloramine T method. After an incubation period, the bound and unbound radiolabeled species were separated, and their relative amounts were determined by either size-exclusion gel-filtration chromatography or monoclonal antibody capture of MHC. The percent of bound radioactivity was then determined.

HLA-DQ2.5 = HLA-DQ2.5 (Homo sapiens, UniProt P01909+P01920, A45G/A70V/D89A/E106A/E77G/E98D/H199R/L107V/N214S/P84L/P87L/T103K/T109R/T172A/T60S/V78E/V99I/Y58L/Y62S/Y69I/Y79F); experiment: MHC II/peptide competition binding assay, HLA-DQ2.5
Method: as §1

HLA-DQ2.2 = HLA-DQ2.2 (Homo sapiens, UniProt P01909+P01920, A45G/A70V/C70K/D167G/D89A/E106A/E183D/E77G/E98D/F237L/F77L/G63E/H199R/I129T/K197E/L107V/L178F/L74F/N214S/P84L/P87L/Q57E/Q76R/R75H/S185I/S97I/T103K/T109R/T172A/T60S/V73L/V78E/V99I/Y48F/Y58L/Y62S/Y69I/Y79F); experiment: MHC II/peptide competition binding assay, HLA-DQ2.2
Method: as §1

HLA-DQ7.5 [1] = molecular target: HLA-DQ7.5 (Homo sapiens, UniProt P01909+P01920); experiment: MHC II/peptide competition binding assay, HLA-DQ7.5
Method: The peptides were synthesized as purified material on the 2 mg scale with free acid C-termini (A&A labs, USA). One skilled in the art would appreciate that the 15-mers used included shorter de-epitoped high molecular weight glutenin peptide sequences (mutated repeating antigenic units), as described throughout. For example, Table 2 provides a listing of 15-mers and the shorter mutated repeating antigenic units present therein.
Briefly, competition assays using different concentrations of wild-type (WT) and modified glutenin peptides were conducted by diluting the peptides in NP40 buffer, and incubation for 2-4 days with purified MHC II and a radiolabeled known MHC binding peptide (peptide probe). MHC II molecules were purified by affinity chromatography, and peptides were radiolabeled using the chloramine T method. After an incubation period, the bound and unbound radiolabeled species were separated, and their relative amounts were determined by either size-exclusion gel-filtration chromatography or monoclonal antibody capture of MHC. The percent of bound radioactivity was then determined.

HLA-DQ7.5 [2] = experiment: MHC II competition binding assay (purified MHC II, radiolabeled probe peptide as competitor)
[3] = Table 3, 15-mer peptides, >40000 signifies binding is undetectable by assay

| Molecule | IC50 (HLA-DQ8) | IC50 (HLA-DQ2.5) | IC50 (HLA-DQ2.2) | IC50 (HLA-DQ7.5 [1]) | IC50 (HLA-DQ8; [3]) | IC50 (HLA-DQ2.5; [3]) | IC50 (HLA-DQ2.2; [3]) | IC50 (HLA-DQ7.5 [1]; [3]) | IC50 (HLA-DQ7.5 [2]) |
| --- | --- | --- | --- | --- | --- | --- | --- | --- | --- |
| CC(C)C[C@H](NC(=O)[C@H](CO)NC(=O)[C@@H](NC(=O)[C@@H]1CCCN1C(=O)[C@H](Cc1ccc(O)cc1)NC(=O)[C@H](Cc1ccc(O)cc1)NC(=O)CNC(=O)[C@@H]1CCCN1C(=O)[C@H](CCC(N)=O)NC(=O)CNC(=O)[C@@H](N)CCC(N)=O)[C@@H](C)O)C(=O)N[C@H](C(=O)N[C@@H](CCC(N)=O)C(=O)N[C@@H](CO)C(=O)NCC(=O)O)[C@@H](C)O [SEQ ID NO: 147] (H-QGQPGYYPTSLTQSG-OH) | > 40 µM | > 40 µM | > 40 µM | > 40 µM |  |  |  |  |  |
| C[C@H](NC(=O)[C@@H]1CCCN1C(=O)CNC(=O)[C@H](Cc1c[nH]cn1)NC(=O)CNC(=O)[C@H](CCC(=O)O)NC(=O)[C@H](CCC(N)=O)NC(=O)CNC(=O)[C@@H](N)CCC(N)=O)C(=O)N[C@@H](CO)C(=O)N1CCC[C@H]1C(=O)N[C@@H](CCCCN)C(=O)N[C@@H](CCC(N)=O)C(=O)N[C@@H](CO)C(=O)NCC(=O)O [SEQ ID NO: 174] (H-QGQEGHGPASPKQSG-OH) | > 40 µM | > 40 µM | > 40 µM | 16.4 µM |  |  |  |  |  |
| CC(C)C[C@H](NC(=O)[C@H](CC(=O)O)NC(=O)[C@H](CCCNC(=N)N)NC(=O)CNC(=O)[C@H](CCC(=O)O)NC(=O)[C@H](CCC(N)=O)NC(=O)CNC(=O)[C@@H](N)CCC(N)=O)C(=O)N[C@H](C(=O)N[C@@H](CO)C(=O)N1CCC[C@H]1C(=O)N[C@@H](CCCCN)C(=O)N[C@@H](CCC(N)=O)C(=O)N[C@@H](CO)C(=O)NCC(=O)O)[C@@H](C)O [SEQ ID NO: 169] (H-QGQEGRDLTSPKQSG-OH) | > 40 µM | > 40 µM | > 40 µM | > 40 µM |  |  |  |  |  |
| CC(C)C[C@H](NC(=O)[C@H](CO)NC(=O)[C@@H](NC(=O)[C@@H]1CCCN1C(=O)[C@H](Cc1ccc(O)cc1)NC(=O)[C@H](Cc1ccc(O)cc1)NC(=O)CNC(=O)[C@H](Cc1c[nH]cn1)NC(=O)[C@H](CCC(N)=O)NC(=O)CNC(=O)[C@@H](N)CCC(N)=O)[C@@H](C)O)C(=O)N[C@@H](Cc1c[nH]cn1)C(=O)N[C@@H](CCC(N)=O)C(=O)N[C@@H](CO)C(=O)NCC(=O)O [P1f] (H-QGQHGYYPTSLHQSG-OH) |  |  |  |  | > 40 µM | > 40 µM | > 40 µM | > 40 µM |  |
| C[C@@H](O)[C@H](NC(=O)[C@@H]1CCCN1C(=O)[C@H](CC(=O)O)NC(=O)[C@H](Cc1ccc(O)cc1)NC(=O)CNC(=O)[C@H](CO)NC(=O)[C@H](CCC(N)=O)NC(=O)CNC(=O)[C@@H](N)CCC(N)=O)C(=O)N[C@@H](CO)C(=O)N1CCC[C@H]1C(=O)N[C@H](C(=O)N[C@@H](CCC(N)=O)C(=O)N[C@@H](CO)C(=O)NCC(=O)O)[C@@H](C)O [P1d] (H-QGQSGYDPTSPTQSG-OH) |  |  |  |  | > 40 µM | > 40 µM | > 40 µM | > 40 µM |  |
| C[C@@H](O)[C@H](NC(=O)[C@@H]1CCCN1C(=O)[C@H](CC(=O)O)NC(=O)[C@H](CC(N)=O)NC(=O)CNC(=O)[C@H](CCC(=O)O)NC(=O)[C@H](CCC(N)=O)NC(=O)CNC(=O)[C@@H](N)CCC(N)=O)C(=O)NCC(=O)N1CCC[C@H]1C(=O)N[C@@H](CCC(=O)O)C(=O)N[C@@H](CCC(N)=O)C(=O)N[C@@H](CO)C(=O)NCC(=O)O [P1g] (H-QGQEGNDPTGPEQSG-OH) |  |  |  |  | > 40 µM | > 40 µM | > 40 µM | > 40 µM |  |
| CC(C)C[C@H](NC(=O)CNC(=O)[C@H](CCCNC(=N)N)NC(=O)CNC(=O)[C@H](CCC(=O)O)NC(=O)[C@H](CCC(N)=O)NC(=O)CNC(=O)[C@@H](N)CCC(N)=O)C(=O)N[C@H](C(=O)N[C@@H](CO)C(=O)N1CCC[C@H]1C(=O)N[C@@H](Cc1c[nH]cn1)C(=O)N[C@@H](CCC(N)=O)C(=O)N[C@@H](CO)C(=O)NCC(=O)O)[C@@H](C)O [SEQ ID NO: 144] (H-QGQEGRGLTSPHQSG-OH) | > 40 µM | > 40 µM | > 40 µM | 39.3 µM |  |  |  |  |  |
| QGAAGYYPTSPRQSG-OH [P1c, modified 15-mer peptide … (SEQ ID NO: 51)] |  |  |  |  |  |  |  |  | 19.9 µM |
| QGQEGRGLTSPHQSG-OH [modified 15-mer peptide … (SEQ ID NO: 144)] |  |  |  |  |  |  |  |  | 39.3 µM |

From patent US20230416314A1, “MODIFIED HIGH MOLECULAR WEIGHT GLUTENIN SUBUNIT AND USES THEREOF” (Ukko Inc., priority 2020, published 2023)
